Results reported in US20230064983A1 (priority 2020, published 2023).

How the values were obtained:
Ba/F3-EGFR-WT cells = Ba/F3-EGFR-WT cells (Homo sapiens, UniProt P00533); assay: Ba/F3 cell survival assay, wild type EGFR; format: cell-based; settings: Cell Titer-Glo, 48 h, with 10 ng/mL EGF; Table 4; read-out: BA/F3 (wild type) IC50
[1] = target: T1, EGFR with insertion SVD between D770 and N771 (mutEGFR D770_N771insSVD) (Homo sapiens, UniProt P00533, DUP768-770); assay: Exon20-Mutant-EGFR(D770_N771insSVD) kinase assay (TR-FRET); format: biochemical; settings: 2 mM ATP, Table 2
T1 construct: amino acids R669 to A1210; made in house; host or cells: Sf9 insect cells (baculovirus)

[2] = target: Ba/F3-EGFR-D770_N771insSVD cells (Homo sapiens, UniProt P00533, DUP768-770, cells depend on it); assay: Ba/F3 cell survival assay, EGFR D770_N771insSVD; format: cell-based; settings: Cell Titer-Glo, 48 h, without IL-3; Table 4; read-out: BA/F3 (insSVD) IC50
Bub1 = target: T2, Bub1 (Homo sapiens, UniProt O43683); assay: Bub1 high ATP kinase assay (TR-FRET); format: biochemical; settings: Bub1 high ATP (2 mM) IC50, TR-FRET, 2 mM ATP; Table 3
T2 construct: catalytic domain of human Bub1 (amino acids 704-1085); His6 (N); made in house; host or cells: insect cells (Hi5)
Source text: Bub1 high ATP Kinase Assay
Bub1-inhibitory activity of compounds of the present invention at a high ATP concentration was quantified employing the Bub1 TR-FRET high ATP kinase assay as described in the following paragraphs.
N-terminally His6-tagged recombinant catalytic domain of human Bub1 (amino acids 704-1085), expressed in insect cells (Hi5) and purified by Ni-NTA affinity chromatography and subsequent size exclusion chromatography, was used as enzyme. As substrate for the kinase reaction the biotinylated peptide biotin-Ahx-[…] (C-terminus in amid form) was used which can be purchased e.g. form the company Biosyntan (Berlin, Germany).
Then the kinase reaction was started by the addition of 2 μl of a solution of Bub1 in assay buffer and the resulting mixture was incubated for a reaction time of 60 min at 22° C. The concentration of Bub1 was adjusted depending of the activity of the enzyme lot and was chosen appropriate to have the assay in the linear range, a typical concentration is about 200 ng/ml. The reaction was stopped by the addition of 3 μl of a solution of TR-FRET detection reagents (0.167 μM streptavidine-XL665 [Cisbio Bioassays, Codolet, France] and 1.67 nM anti-phosho-Serine antibody [Merck Millipore, cat. #35-002] and 0.67 nM LANCE EU-W1024 labeled anti-mouse IgG antibody [Perkin-Elmer, product no. AD0077, as an alternative a Terbium-cryptate-labeled anti-mouse IgG antibody from Cisbio Bioassays can be used]) in an aqueous EDTA-solution (83.3 mM EDTA, 0.2% (w/v) bovine serum albumin in 100 mM HEPES pH 7.5).
The resulting mixture was incubated 1 h at 22° C. to allow the formation of complex between the phosphorylated biotinylated peptide and the detection reagents. Subsequently the amount of phosphorylated substrate was evaluated by measurement of the resonance energy transfer from the Eu-chelate to the streptavidine-XL. Therefore, the fluorescence emissions at 620 nm and 665 nm after excitation at 350 nm was measured in a TR-FRET reader, e.g. a Pherastar or Pherastar FS (both from BMG Labtechnologies, Offenburg, Germany) or a Viewlux (Perkin-Elmer). The ratio of the emissions at 665 nm and at 622 nm was taken as the measure for the amount of phosphorylated substrate.

Ba/F3-EGFR-WT cells, sequence (P00533 whole entry, looked up, stated change not applied): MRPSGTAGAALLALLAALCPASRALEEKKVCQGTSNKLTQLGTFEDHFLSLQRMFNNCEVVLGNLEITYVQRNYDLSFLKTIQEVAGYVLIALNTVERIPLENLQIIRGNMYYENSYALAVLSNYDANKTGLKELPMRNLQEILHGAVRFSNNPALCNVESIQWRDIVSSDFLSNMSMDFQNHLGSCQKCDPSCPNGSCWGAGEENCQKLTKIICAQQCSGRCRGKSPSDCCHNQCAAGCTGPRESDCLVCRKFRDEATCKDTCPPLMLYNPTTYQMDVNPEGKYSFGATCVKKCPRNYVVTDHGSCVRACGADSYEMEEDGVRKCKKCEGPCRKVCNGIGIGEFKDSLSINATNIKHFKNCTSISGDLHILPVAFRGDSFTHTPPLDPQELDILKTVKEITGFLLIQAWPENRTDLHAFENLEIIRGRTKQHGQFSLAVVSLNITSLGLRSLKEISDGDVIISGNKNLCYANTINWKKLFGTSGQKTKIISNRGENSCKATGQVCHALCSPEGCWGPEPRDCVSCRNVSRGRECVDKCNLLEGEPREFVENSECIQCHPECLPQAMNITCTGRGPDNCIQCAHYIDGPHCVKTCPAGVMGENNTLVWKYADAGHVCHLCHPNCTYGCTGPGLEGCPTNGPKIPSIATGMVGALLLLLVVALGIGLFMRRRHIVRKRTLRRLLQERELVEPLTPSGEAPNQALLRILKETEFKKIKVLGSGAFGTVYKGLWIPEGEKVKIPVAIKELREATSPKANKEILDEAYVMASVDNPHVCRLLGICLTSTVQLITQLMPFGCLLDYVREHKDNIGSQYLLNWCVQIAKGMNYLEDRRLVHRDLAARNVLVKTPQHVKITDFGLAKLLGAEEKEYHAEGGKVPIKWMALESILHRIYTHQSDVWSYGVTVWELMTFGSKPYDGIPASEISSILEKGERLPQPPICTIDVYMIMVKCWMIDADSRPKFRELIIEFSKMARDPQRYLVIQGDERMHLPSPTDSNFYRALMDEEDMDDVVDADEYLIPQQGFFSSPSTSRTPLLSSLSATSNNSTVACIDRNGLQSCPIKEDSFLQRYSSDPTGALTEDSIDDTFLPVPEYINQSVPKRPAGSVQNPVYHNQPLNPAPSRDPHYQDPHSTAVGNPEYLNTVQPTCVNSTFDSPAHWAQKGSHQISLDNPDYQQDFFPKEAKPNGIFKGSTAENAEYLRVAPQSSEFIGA
Ba/F3-EGFR-D770_N771insSVD cells, sequence (P00533 with tags, fused parts or gaps DUP768-770): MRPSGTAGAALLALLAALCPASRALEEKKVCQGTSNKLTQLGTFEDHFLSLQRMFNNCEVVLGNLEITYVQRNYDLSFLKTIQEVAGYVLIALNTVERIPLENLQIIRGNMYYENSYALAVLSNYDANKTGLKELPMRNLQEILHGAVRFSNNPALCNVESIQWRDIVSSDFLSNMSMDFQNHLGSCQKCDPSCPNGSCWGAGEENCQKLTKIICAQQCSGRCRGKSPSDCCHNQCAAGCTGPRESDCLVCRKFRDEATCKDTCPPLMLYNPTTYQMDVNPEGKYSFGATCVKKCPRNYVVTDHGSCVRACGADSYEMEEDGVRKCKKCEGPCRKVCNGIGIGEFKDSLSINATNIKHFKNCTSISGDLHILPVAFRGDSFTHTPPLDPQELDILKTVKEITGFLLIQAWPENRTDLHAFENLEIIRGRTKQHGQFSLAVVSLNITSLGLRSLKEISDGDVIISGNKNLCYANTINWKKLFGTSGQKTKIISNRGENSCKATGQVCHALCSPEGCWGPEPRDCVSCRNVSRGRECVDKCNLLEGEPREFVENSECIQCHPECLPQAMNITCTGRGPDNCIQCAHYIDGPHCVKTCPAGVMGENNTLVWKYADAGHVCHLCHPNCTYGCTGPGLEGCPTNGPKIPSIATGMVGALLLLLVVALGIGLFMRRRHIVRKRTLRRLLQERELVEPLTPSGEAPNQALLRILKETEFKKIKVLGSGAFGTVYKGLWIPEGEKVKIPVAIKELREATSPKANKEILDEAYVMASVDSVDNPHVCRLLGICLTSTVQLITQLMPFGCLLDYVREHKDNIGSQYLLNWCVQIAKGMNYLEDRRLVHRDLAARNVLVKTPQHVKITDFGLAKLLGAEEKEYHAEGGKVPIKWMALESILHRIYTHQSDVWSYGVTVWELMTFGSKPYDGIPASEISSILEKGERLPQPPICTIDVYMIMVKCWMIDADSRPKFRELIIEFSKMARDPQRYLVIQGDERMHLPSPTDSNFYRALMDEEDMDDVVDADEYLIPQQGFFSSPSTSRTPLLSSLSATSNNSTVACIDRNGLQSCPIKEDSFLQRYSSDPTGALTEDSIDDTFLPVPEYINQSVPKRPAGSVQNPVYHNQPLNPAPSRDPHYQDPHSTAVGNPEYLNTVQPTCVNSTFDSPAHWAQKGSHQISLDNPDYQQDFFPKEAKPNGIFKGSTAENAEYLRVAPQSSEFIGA
T2 sequence (O43683 704-1085): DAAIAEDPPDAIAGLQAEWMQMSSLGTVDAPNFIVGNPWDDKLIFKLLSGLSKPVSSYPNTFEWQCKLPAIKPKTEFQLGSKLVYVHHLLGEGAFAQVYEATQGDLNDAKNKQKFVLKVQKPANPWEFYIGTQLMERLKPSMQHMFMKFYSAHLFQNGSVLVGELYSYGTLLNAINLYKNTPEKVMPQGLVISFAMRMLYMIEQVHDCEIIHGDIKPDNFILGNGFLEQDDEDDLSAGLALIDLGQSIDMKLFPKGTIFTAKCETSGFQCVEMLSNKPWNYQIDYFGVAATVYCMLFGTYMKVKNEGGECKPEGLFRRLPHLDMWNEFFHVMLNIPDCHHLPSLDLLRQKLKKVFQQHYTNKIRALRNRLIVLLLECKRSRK
T1 sequence (P00533 other isoform, or with tags, fused parts or gaps DUP768-770): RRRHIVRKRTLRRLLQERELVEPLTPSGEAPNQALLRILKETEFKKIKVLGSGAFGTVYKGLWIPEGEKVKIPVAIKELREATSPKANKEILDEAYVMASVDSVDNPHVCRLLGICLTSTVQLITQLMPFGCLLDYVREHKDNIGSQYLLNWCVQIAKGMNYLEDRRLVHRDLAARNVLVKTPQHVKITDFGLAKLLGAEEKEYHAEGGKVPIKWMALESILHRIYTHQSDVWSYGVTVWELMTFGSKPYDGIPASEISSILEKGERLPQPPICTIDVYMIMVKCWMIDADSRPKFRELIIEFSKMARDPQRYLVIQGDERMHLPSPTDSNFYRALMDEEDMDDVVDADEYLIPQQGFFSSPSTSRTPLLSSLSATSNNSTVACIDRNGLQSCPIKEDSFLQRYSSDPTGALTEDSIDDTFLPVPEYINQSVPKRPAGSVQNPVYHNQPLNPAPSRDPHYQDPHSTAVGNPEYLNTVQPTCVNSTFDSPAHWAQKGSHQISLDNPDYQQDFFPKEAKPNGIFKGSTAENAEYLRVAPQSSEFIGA

mutEGFR (D770_N771insSVD) kinase assay IC50 [1] | IC50 (Bub1) | SMILES | GI50 (Ba/F3-EGFR-WT cells) | GI50 [2]
0.66 nM | 11600 nM | COc1c(Cl)cccc1Nc1c(-c2ccncc2OCC2(C)CCO2)[nH]c2c1C(=O)NCC2CCO (single isomer, unassigned) [Example 22, 3-(3-chloro-2-methoxyanilino)-7-(2-hydroxyethyl)-2-{3-[(2-methyloxetan-2-yl)methoxy]pyridin-4-yl}-1,5,6,7-tetrahydro-4H-pyrrolo[3,2-c]pyridin-4-one] | 2630 nM | 616 nM
0.119 nM | > 20000 nM | COc1c(Cl)cccc1Nc1c(-c2ccncc2OC[C@@H]2CCCO2)[nH]c2c1C(=O)NCC2C (single isomer, unassigned) [Example 31] | 2770 nM | 125 nM
0.324 nM | 1520 nM | Cc1c(Cl)cccc1Nc1c(-c2ccncc2OCC2CCCCO2)[nH]c2c1C(=O)NCC2C (single isomer, unassigned) [Example 119, 3-(3-chloro-2-methyl-anilino)-7-methyl-2-[3-(tetrahydropyran-2-ylmethoxy)-4-pyridyl]-1,5,6,7-tetrahydropyrrolo[3,2-c]pyridin-4-one] | 1290 nM | 54.7 nM
0.143 nM | 2710 nM | COc1c(Cl)cccc1Nc1c(-c2ccncc2OCC(C)OC)[nH]c2c1C(=O)N[C@H](C)C2 (single isomer, unassigned) [Example 82] | 248 nM | 13.9 nM
0.318 nM | 1670 nM | COc1c(Cl)cccc1Nc1c(-c2ccncc2OCC2COC(C)(C)CO2)[nH]c2c1C(=O)NC1(CCC1)C2 (single isomer, unassigned) [Example 131, 3′-(3-chloro-2-methoxyanilino)-2′-{3-[(5,5-dimethyl-1,4-dioxan-2-yl)methoxy]pyridin-4-yl}-1′,7′-dihydrospiro[cyclobutane-1,6′-pyrrolo[3,2-c]pyridin]-4′(5′H)-one] | 980 nM | 48.4 nM
0.157 nM | 4870 nM | COc1c(Cl)cccc1Nc1c(-c2ccncc2OCC(C)OC)[nH]c2c1C(=O)N[C@H](C)C2 (single isomer, unassigned) [Example 81] | 583 nM | 44 nM
0.361 nM | > 20000 nM | COc1c(Cl)cccc1Nc1c(-c2ccncc2OC[C@@H]2CN(C)CCO2)[nH]c2c1C(=O)N[C@@H]1CCC[C@H]21 [Example 64, (5aR,8aS)-3-(3-chloro-2-methoxyanilino)-2-(3-{[(2S)-4-methylmorpholin-2-yl]methoxy}pyridin-4-yl)-5,5a,6,7,8,8a-hexahydrocyclopenta[b]pyrrolo[2,3-d]pyridin-4(1H)-one] | 643 nM | 47.6 nM
0.631 nM | > 20000 nM | COc1c(Cl)cccc1Nc1c(-c2ccncc2OCC2COC(C)(C)CO2)[nH]c2c1C(=O)NCC2C (single isomer, unassigned) [Example 94, 3-(3-chloro-2-methoxy-anilino)-2-{3-[(5,5-dimethyl-1,4-dioxan-2-yl)methoxy]-4-pyridyl}-7-methyl-1,5,6,7-tetrahydropyrrolo[3,2-c]pyridin-4-one] | 1080 nM | 66.6 nM
0.113 nM | 3010 nM | COc1c(Cl)cccc1Nc1c(-c2ccncc2OC[C@@H]2CCCO2)[nH]c2c1C(=O)N[C@@H](C)C2 (single isomer, unassigned) [Example 4] | 883 nM | 95.3 nM
0.189 nM | 3630 nM | COc1c(Cl)cccc1Nc1c(-c2ccncc2OCC(C)(C)OC)[nH]c2c1C(=O)NCC2CCO (centres unmarked) [Example 13, 3-(3-chloro-2-methoxyanilino)-7-(2-hydroxyethyl)-2-[3-(2-methoxy-2-methylpropoxy)pyridin-4-yl]-1,5,6,7-tetrahydro-4H-pyrrolo[3,2-c]pyridin-4-one] | 339 nM | 35 nM
0.227 nM | 9130 nM | COc1c(Cl)cccc1Nc1c(-c2ccncc2OCC2CCCCO2)[nH]c2c1C(=O)NCC2C (single isomer, unassigned) [Example 48, 3-(3-chloro-2-methoxy-anilino)-7-methyl-2-[3-(tetrahydropyran-2-ylmethoxy)-4-pyridyl]-1,5,6,7-tetrahydropyrrolo[3,2-c]pyridin-4-one] | 611 nM | 25.7 nM
0.125 nM | 9700 nM | COc1c(Cl)cccc1Nc1c(-c2ccncc2OC[C@@H]2CCCO2)[nH]c2c1C(=O)N[C@H](C)C2 (single isomer, unassigned) [Example 5] | 331 nM | 20.2 nM
0.19 nM | 2700 nM | Cc1c(Cl)cccc1Nc1c(-c2ccncc2OCC2OCCCC2(F)F)[nH]c2c1C(=O)NCC2C (centres unmarked) [Example 61, 3-(3-chloro-2-methyl-anilino)-2-[3-[(3,3-difluorotetrahydropyran-2-yl)methoxy]-4-pyridyl]-7-methyl-1,5,6,7-tetrahydropyrrolo[3,2-c]pyridin-4-one] | 534 nM | 20.5 nM
0.235 nM | 446 nM | COc1c(Cl)cccc1Nc1c(-c2ccncc2OCC2COCCO2)[nH]c2c1C(=O)NC1(CCC1)C2 (single isomer, unassigned) [Example 125, 3-(3-chloro-2-methoxy-anilino)-2-[3-(1,4-dioxan-2-ylmethoxy)-4-pyridyl]spiro[5,7-dihydro-1H-pyrrolo[3,2-c]pyridine-6,1′-cyclobutane]-4-one] | 948 nM | 40.4 nM
0.145 nM | 1730 nM | Cc1c(Cl)cccc1Nc1c(-c2ccncc2OCC2COCCO2)[nH]c2c1C(=O)NCC2C (centres unmarked) [Example 66, 3-(3-chloro-2-methyl-anilino)-2-[3-(1,4-dioxan-2-ylmethoxy)-4-pyridyl]-7-methyl-1,5,6,7-tetrahydropyrrolo[3,2-c]pyridin-4-one] | 766 nM | 42.8 nM
0.0957 nM | > 20000 nM | COc1c(F)cccc1Nc1c(-c2ccncc2OC[C@@H]2CCCO2)[nH]c2c1C(=O)NC(C)C2 (single isomer, unassigned) [Example 10] | 382 nM | 31.7 nM

SMILES | mutEGFR (D770_N771insSVD) kinase assay IC50 [1] | IC50 (Bub1) | GI50 (Ba/F3-EGFR-WT cells) | GI50 [2]
COCC(C)Oc1cnccc1-c1[nH]c2c(c1Nc1cccc(Cl)c1OC)C(=O)N[C@@H]1CCC[C@H]21 (stereo partly drawn) [Example 49, (5aR,8aS)-3-(3-chloro-2-methoxyanilino)-2-{3-[(1-methoxypropan-2-yl)oxy]-4-pyridyl}-5,5a,6,7,8,8a-hexahydrocyclopenta[b]pyrrolo[2,3-d]pyridin-4(1)-one] | 0.275 nM | 13200 nM | 291 nM | 33.1 nM
